# Measured values as given in the supplement of paper PMC10307832.
# Tests used:
# Assay in all cases: relative viability (nuclei count vs DMSO), 5 days (fraction); higher = more cells survive
# Dovitinib + Navitoclax = compound: CN1CCN(c2ccc3nc(-c4c(N)c5c(F)cccc5[nH]c4=O)[nH]c3c2)CC1 [Dovitinib] + CC1(C)CCC(c2ccc(Cl)cc2)=C(CN2CCN(c3ccc(C(=O)NS(=O)(=O)c4ccc(N[C@H](CCN5CCOCC5)CSc5ccccc5)c(S(=O)(=O)C(F)(F)F)c4)cc3)CC2)C1 [Navitoclax] (partner 0.5 µM)
# How it was run: (§1)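 After 5 days of treatment, lung cancer cells in 1536-well plates were fixed and stained in a single step (final 0.05% Triton X-100, 1% formaldehyde, 1 ug/ml Hoechst) and their nuclei counted on 4× images. Treatment had been applied by pin tool the day after seeding as one drug alone or as a fixed anchor-drug dose with five library-drug doses (not always all listed) in √10 steps. Relative viability is the nuclei count of treated wells divided by that of vehicle wells, and values are medians of duplicate plates.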
# Dovitinib + Linsitinib = compound: CN1CCN(c2ccc3nc(-c4c(N)c5c(F)cccc5[nH]c4=O)[nH]c3c2)CC1 [Dovitinib] + C[C@]1(O)C[C@@H](c2nc(-c3ccc4ccc(-c5ccccc5)nc4c3)c3c(N)nccn32)C1 [Linsitinib] (partner 1 µM)
# How it was run: as §1
# Dovitinib + Foretinib = compound: CN1CCN(c2ccc3nc(-c4c(N)c5c(F)cccc5[nH]c4=O)[nH]c3c2)CC1 [Dovitinib] + COc1cc2c(Oc3ccc(NC(=O)C4(C(=O)Nc5ccc(F)cc5)CC4)cc3F)ccnc2cc1OCCCN1CCOCC1 [Foretinib] (partner 0.25 µM)
# How it was run: as §1
# Dovitinib + Luminespib = compound: CN1CCN(c2ccc3nc(-c4c(N)c5c(F)cccc5[nH]c4=O)[nH]c3c2)CC1 [Dovitinib] + CCNC(=O)c1noc(-c2cc(C(C)C)c(O)cc2O)c1-c1ccc(CN2CCOCC2)cc1 [Luminespib] (partner 0.01 µM)
# How it was run: as §1
Cell Line,relative viability (Dovitinib + Navitoclax; first compound 0.02 µM),relative viability (Dovitinib + Navitoclax; first compound 0.06325 µM),relative viability (Dovitinib + Navitoclax; first compound 0.6325 µM),relative viability (Dovitinib + Navitoclax; first compound 2 µM),relative viability (Dovitinib + Linsitinib; first compound 0.02 µM),relative viability (Dovitinib + Linsitinib; first compound 0.06325 µM),relative viability (Dovitinib + Linsitinib; first compound 0.6325 µM),relative viability (Dovitinib + Linsitinib; first compound 2 µM),relative viability (Dovitinib + Foretinib; first compound 0.02 µM),relative viability (Dovitinib + Foretinib; first compound 0.06325 µM),relative viability (Dovitinib + Foretinib; first compound 0.2 µM),relative viability (Dovitinib + Foretinib; first compound 0.6325 µM),relative viability (Dovitinib + Foretinib; first compound 2 µM),relative viability (Dovitinib + Luminespib; first compound 0.02 µM),relative viability (Dovitinib + Luminespib; first compound 0.06325 µM),relative viability (Dovitinib + Luminespib; first compound 0.2 µM),relative viability (Dovitinib + Luminespib; first compound 0.6325 µM),relative viability (Dovitinib + Luminespib; first compound 2 µM),relative viability (Dovitinib + Navitoclax; first compound 0.2 µM),relative viability (Dovitinib + Linsitinib; first compound 0.2 µM)
201T,1.12,1.21,1.22,1.21,0.988,0.944,0.945,0.995,0.946,1.01,1.07,1.09,1.06,0.924,1.04,1.02,1.09,1.01,,
A549,1.21,1.11,1.19,1.14,0.654,0.573,0.586,0.632,0.943,0.919,0.954,0.985,0.975,,,,,,1.24,0.651
A-427,0.91,0.933,0.902,0.822,1.05,1.07,1.09,1.08,1.17,0.996,1.02,1.07,0.956,0.843,1.02,1.14,0.897,0.747,0.942,1.14
ABC-1,,,,,0.848,0.865,1.02,0.618,0.899,1.05,1.2,1.11,1.42,,0.522,0.326,0.783,0.659,,0.842
BEN,0.0734,0.0569,0.0923,0.0738,0.874,0.873,0.922,0.898,0.52,0.566,0.68,0.698,0.614,0.258,0.458,0.432,0.512,0.203,0.0676,1.07
CAL-12T,1.24,1.12,1.17,1.42,0.839,0.894,0.784,0.82,0.986,1.12,1.07,1.1,1.12,0.297,0.469,0.495,0.519,0.219,1.43,0.756
COR-L23,0.962,1.19,1.05,1.07,0.876,1.05,0.896,1.04,0.93,1,0.99,0.952,1.04,0.581,0.788,0.695,0.664,0.72,1.02,0.943
COR-L 105,0.701,0.62,0.646,0.806,1.04,0.912,0.855,0.961,0.921,0.993,1.2,1.14,1.31,0.77,0.84,0.78,0.82,0.81,0.754,0.834
Calu-6,0.828,0.784,0.813,0.782,0.947,0.955,0.93,0.887,0.925,0.861,0.853,0.874,0.912,,,,,,0.828,0.935
ChaGo-K-1,1.01,0.976,1.14,1.18,,,,,0.848,0.888,0.906,0.892,0.909,0.631,0.627,0.567,0.609,0.628,0.975,
EKVX,0.923,0.989,0.989,0.883,1.01,1.05,1.02,0.978,0.633,0.721,0.64,0.757,0.808,0.914,0.901,0.882,0.89,0.866,1.1,1
EMC-BAC-2,1.12,1.2,1.15,1.13,0.799,0.799,0.797,0.843,1,0.982,0.991,0.948,0.599,1.19,1.13,1.16,1.05,0.986,1.12,0.825
EPLC-272H,1.05,0.993,1.49,0.97,1.17,1.16,1.11,1.16,0.634,0.841,0.732,0.747,0.687,0.235,0.241,0.386,0.364,0.236,1.24,1.2
H3255,0.627,0.532,0.559,0.582,1,0.937,1.02,1.02,0.877,0.864,0.904,0.982,0.966,0.943,0.9,0.956,0.932,0.923,0.569,1.01
HARA,1.16,1.16,1.15,1.15,1,0.943,0.968,0.859,0.969,0.765,0.846,0.873,0.905,0.708,0.682,0.595,0.603,0.763,1.12,0.924
HCC-15,0.777,0.701,0.708,0.7,0.952,0.831,0.879,0.941,1.03,0.971,1,1.06,1.03,0.233,0.237,0.238,0.297,0.303,0.707,0.938
HCC-44,0.954,0.925,0.974,0.876,0.681,0.667,0.773,0.628,,,,,,0.981,0.976,1.12,1.11,1.02,0.923,0.681
HCC-78,0.784,,0.754,0.772,0.693,,0.478,0.532,0.632,0.528,0.535,0.599,0.623,,,,,,0.827,0.626
